Data from publication PMC5011342, “A high throughput drug screening assay to identify compounds that promote oligodendrocyte differentiation using acutely dissociated and purified oligodendrocyte precursor cells” (BMC Research Notes, 2016).
Structures can show the parent of a compound that is named as a salt. Where two headings read alike, the source gives them in different places.

Columns and labels:
[1] = system: acutely dissociated and purified rat OPCs; experiment: Acute OL differentiation assay (MBP expression/cell, immunofluorescent image quantification); assay type: cell-based; conditions: sheet "All OLga data"; for activation at 2 µM / activation at 10 µM / activation at 0.08 µM / activation at 0.4 µM: Rattus norvegicus
How it was run: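 This acute differentiation assay used purified rat OPCs from postnatal day 6–7 pups, seeded into PDL/laminin-coated 96-well plates in differentiation medium lacking PDGF and FGF. Compounds were applied in quadruplicate after a 1–2 h preincubation at 37 °C, 10 % CO2, with 0.1 % DMSO negative and 40 ng/ml T3 positive controls in eight wells. After fixation on DIV4, anti-MBP immunofluorescence images yielded MBP expression/cell.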

[2] = system: expanded OPCs; experiment: cells; conditions: for viability at 0.1 µM / viability at 1 µM / viability at 10 µM: Rattus norvegicus, 72 h
How it was run: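 Toxicity screen: compounds added at 0.1, 1 and 10 µM to PDGF-AA-expanded OPCs in 96-well plates, 3-day incubation at 37 °C, 10% CO2, then alamarBlue 1:10 for 4 h with fluorescence readout. Results set screening doses of 10/2, 2/0.4 or 0.4/0.08 µM.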

[3] = test compound at 2 uM, MBP expression relative to quetiapine, NCC library screen, read-out: 2 uM (% Quet)
[4] = alamarBlue viability of expanded OPCs, compound at 0.1 µM, relative to DMSO control
[5] = alamarBlue viability of expanded OPCs, compound at 1 µM, relative to DMSO control
[6] = alamarBlue viability of expanded OPCs, compound at 10 µM, relative to DMSO control
[7] = read-out: 0.1 µM (% DMSO), alamarBlue viability, NCC library compound at 0.1 µM, sheet "All Tox data"
[8] = read-out: 1 µM (% DMSO), alamarBlue viability, NCC library compound at 1 µM, sheet "All Tox data"
[9] = read-out: 10 µM (% DMSO), alamarBlue viability, NCC library compound at 10 µM, sheet "All Tox data"
[10] = test compound at 2 uM, NCC library screen, relative to quetiapine, read-out: 2 uM (% Quet)
[11] = test compound at 10 uM, NCC library screen, relative to quetiapine, read-out: 10 uM (% Quet)
[12] = 0.4 uM test compound, relative to quetiapine, read-out: OL differentiation, 0.4 uM (% Quet)
[13] = 2 uM test compound, relative to quetiapine, read-out: OL differentiation, 2 uM (% Quet)
[14] = read-out: 0.1 µM (% DMSO), alamarBlue viability of expanded OPCs, compound at 0.1 µM, sheet All Tox data
[15] = read-out: 1 µM (% DMSO), alamarBlue viability of expanded OPCs, compound at 1 µM, sheet All Tox data
[16] = read-out: 10 µM (% DMSO), alamarBlue viability of expanded OPCs, compound at 10 µM, sheet All Tox data
[17] = 10 uM test compound, relative to quetiapine, read-out: OL differentiation, 10 uM (% Quet)

Structure (SMILES)	viability at 0.1 µM [2, 7] [%]	viability at 1 µM [2, 8] [%]	viability at 10 µM [2, 9] [%]	activation at 2 µM [1, 10] [%]	activation at 10 µM [1, 11] [%]	viability at 0.1 µM [2, 14] [%]	viability at 1 µM [2, 15] [%]	viability at 10 µM [2, 16] [%]	also measured
CO/N=C(\C(=O)N[C@@H]1C(=O)N2C(C(=O)O)=C(COC(N)=O)CS[C@H]12)c1ccco1 [Cefuroxime]	–	–	–	–	–	–	–	–	activation at 2 µM [1, 3]: 13.5%; activation at 10 µM ([1]; test compound at 10 uM, MBP expression relative to quetiapine, NCC library screen, read-out: 10 uM (% Quet)): 13.9%; 0.1 µM (% DMSO) [2, 4]: 91.1 % DMSO; 1 µM (% DMSO) [2, 5]: 94.9 % DMSO; 10 µM (% DMSO) [2, 6]: 91.5 % DMSO
Nc1nc(Cl)nc2c1ncn2[C@H]1C[C@H](O)[C@@H](CO)O1 [Cladribine]	41.2	22.4	10.4	–	–	–	–	–	activation at 0.08 µM ([1]; test compound at 0.08 uM, NCC library screen, relative to quetiapine, read-out: 0.08 uM (% Quet)): -6.7%; activation at 0.4 µM ([1]; test compound at 0.4 uM, NCC library screen, relative to quetiapine, read-out: 0.4 uM (% Quet)): -22.9%
CN(C)[C@@H]1C(O)=C(C(N)=O)C(=O)[C@@]2(O)C(O)=C3C(=O)c4c(O)ccc(Cl)c4[C@@H](O)[C@H]3C[C@@H]12 [Demeclocycline]	96.3	90.6	88.4	-7.5	-21	–	–	–	–
COCCCC/C(=N\OCCN)c1ccc(C(F)(F)F)cc1 [Fluvoxamine]	–	–	–	–	–	79.1	67.7	40	activation at 0.4 µM [1, 12]: 3.3%; activation at 2 µM [1, 13]: 23.1%
CN1[C@@H]2C[C@@H](OC(=O)[C@H](CO)c3ccccc3)C[C@H]1[C@@H]1O[C@@H]12 [Scopolamine hydrobromide]	–	–	–	–	–	81.1	90.5	88.5	activation at 0.08 µM ([1]; 0.08 uM test compound, relative to quetiapine, read-out: OL differentiation, 0.08 uM (% Quet)): 21.6%; activation at 0.4 µM [1, 12]: 10.9%
CCN(CC)CCNC(=O)c1cc(Cl)c(N)cc1OC [Metoclopramide]	–	–	–	-21.4	-26.2	–	–	–	0.1 µM (% DMSO) [2, 4]: 108.4 % DMSO; 1 µM (% DMSO) [2, 5]: 109.6 % DMSO; 10 µM (% DMSO) [2, 6]: 116.8 % DMSO
NCC(=O)CCC(=O)O [Aminolevulinic Acid]	96	86.7	73.4	5.1	-16.1	–	–	–	–
CC[C@H](C)C(=O)O[C@H]1C[C@@H](C)C=C2C=C[C@H](C)[C@H](CC[C@@H]3C[C@@H](O)CC(=O)O3)[C@H]21 [Lovastatin]	–	–	–	–	–	–	–	–	activation at 0.4 µM ([1]; test compound at 0.4 uM, MBP expression relative to quetiapine, NCC library screen, read-out: 0.4 uM (% Quet)): -70.9%; activation at 2 µM [1, 3]: -93.2%; 0.1 µM (% DMSO) [2, 4]: 147.6 % DMSO; 1 µM (% DMSO) [2, 5]: 99.7 % DMSO; 10 µM (% DMSO) [2, 6]: 46.0 % DMSO
Clc1ccc(CO/N=C(\Cn2ccnc2)c2ccc(Cl)cc2Cl)c(Cl)c1 [Oxiconazole]	–	–	–	–	–	131	195	11.7	activation at 0.4 µM [1, 12]: 96.5%
CC(=O)OCC(CCn1cnc2cnc(N)nc21)COC(C)=O [Famciclovir]	–	–	–	–	–	97.6	90.6	106	activation at 2 µM [1, 13]: -6.9%; activation at 10 µM [1, 17]: -8.8%
O=c1n(CCCN2CCN(c3cccc(Cl)c3)CC2)nc2ccccn12 [Trazodone]	–	–	–	–	–	90.8	78.9	84.9	activation at 2 µM [1, 13]: -7.5%; activation at 10 µM [1, 17]: 55%
C[C@H](N[C@@H](CCc1ccccc1)C(=O)O)C(=O)N1CCC[C@H]1C(=O)O [Enalaprilat]	–	–	–	–	–	–	–	–	OL differentiation, 2 uM (% Quet) ([1]; 2 uM test compound, relative to quetiapine): -17.8 % Quet; OL differentiation, 10 uM (% Quet) ([1]; 10 uM test compound, relative to quetiapine): -49.3 % Quet; 0.1 µM (% DMSO) ([2]; alamarBlue viability, NCC library compound at 0.1 µM, sheet "All Tox data"): 92.9 % DMSO; 1 µM (% DMSO) ([2]; alamarBlue viability, NCC library compound at 1 µM, sheet "All Tox data"): 91.2 % DMSO; 10 µM (% DMSO) ([2]; alamarBlue viability, NCC library compound at 10 µM, sheet "All Tox data"): 83.0 % DMSO
CC(C)[N+](C)(CCOC(=O)C1c2ccccc2Oc2ccccc21)C(C)C [Propantheline]	91.7	112	148	36.4	90.8	–	–	–	–
